Paper PMC9296036, “A peptide interfering with the dimerization of oncogenic KITENIN protein and its stability suppresses colorectal tumour progression” (Clinical and Translational Medicine, 2022)
Ends that are not written are not given here.

Experiments:
[1] = biological target: T1, KITENIN (Mus musculus, UniProt Q80Z96); experiment: Endogenous KITENIN protein level in CT-26 cells (immunoblot); format: cell-based; conditions: non-transfected CT-26 cells, KDIP 1 μM, 12 h
T1 construct: decreased endogenous KITENIN protein levels in non‐transfected HCT116 and CT‐26 cells; endogenous in cells; host or cells: CT-26
T1 sequence (Q80Z96 1-526): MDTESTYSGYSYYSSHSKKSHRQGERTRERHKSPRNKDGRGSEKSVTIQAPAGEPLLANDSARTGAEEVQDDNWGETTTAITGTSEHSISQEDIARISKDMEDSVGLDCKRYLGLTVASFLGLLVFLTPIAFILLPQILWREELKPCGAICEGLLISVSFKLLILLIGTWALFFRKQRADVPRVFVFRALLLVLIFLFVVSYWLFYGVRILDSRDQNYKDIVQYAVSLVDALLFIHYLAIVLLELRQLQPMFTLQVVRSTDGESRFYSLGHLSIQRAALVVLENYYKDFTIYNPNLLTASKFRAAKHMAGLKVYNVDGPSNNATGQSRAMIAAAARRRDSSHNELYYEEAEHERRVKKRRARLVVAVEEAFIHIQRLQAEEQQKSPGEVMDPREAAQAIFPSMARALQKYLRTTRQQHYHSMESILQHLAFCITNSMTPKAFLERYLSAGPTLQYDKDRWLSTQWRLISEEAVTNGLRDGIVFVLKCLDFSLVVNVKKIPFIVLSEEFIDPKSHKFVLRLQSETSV
Text: (§1) Antibodies against the following proteins were obtained from the indicated suppliers: Na^+/K^+ ATPase, GFP and tubulin (Santa Cruz Biotechnology); c‐Jun, p‐c‐Jun, ERK, p‐ERK, c‐MET, p‐c‐MET and GST (Cell Signaling Technology); V5, Myc (MBL); HA and β‐actin (Sigma); KITENIN (Atlas); His and RACK1, LC3, p62, Myo10, and eukaryotic elongation factor 2 (eEF2) (Abcam). They were used with appropriate secondary antibodies (Thermo). For transient transfection analyses, Caco2, HCT116 and 293T cells were transfected with various plasmids and harvested for immunoblot analysis 48 h after transfection. For most assays using stable cell lines, mixed polyclonal cells were used to exclude clonal variation. […]
(§2) FIGURE 2 KAI1 C‐terminal interacting tetraspanin (KITENIN) dimerization‐interfering peptide (KDIP) suppresses KITENIN‐induced enhanced cell invasion through the inhibition of the homodimerization of KITENIN. […] After 48 h of treatment, KITENIN transcripts in cells were analysed by the 2^−ΔΔ ^CT method using Q‐PCR. […] Caco2 cells were co‐transfected with KITENIN‐V5/Myc and treated with or without KDIP or scrambled peptide (scr) and were immunoprecipitated with anti‐V5 antibody and detected by indicated antibodies. Numerals indicated a quantification of the MYC bands normalized to the corresponding V5 bands (left panel). […] Numerals indicated a quantification of the bands observed (left panel). […]

[2] = system: CT-26/iRFP/KITENIN cells; experiment: Transwell cell invasion assay, CT-26/iRFP/KITENIN or CT-26/KITENIN-V5 cells; format: cell-based, mouse; conditions: increasing doses of KDIP, compared with scramble peptide
[3] = biological target: T2, KITENIN (Homo sapiens, UniProt Q8TAA9); experiment: Endogenous KITENIN protein level in HCT116 cells (immunoblot); format: cell-based; conditions: non-transfected HCT116 cells, KDIP 1 μM, 12 h
T2 construct: decreased endogenous KITENIN protein levels in non‐transfected HCT116 and CT‐26 cells; endogenous in cells; host or cells: HCT116
T2 sequence (Q8TAA9 1-524): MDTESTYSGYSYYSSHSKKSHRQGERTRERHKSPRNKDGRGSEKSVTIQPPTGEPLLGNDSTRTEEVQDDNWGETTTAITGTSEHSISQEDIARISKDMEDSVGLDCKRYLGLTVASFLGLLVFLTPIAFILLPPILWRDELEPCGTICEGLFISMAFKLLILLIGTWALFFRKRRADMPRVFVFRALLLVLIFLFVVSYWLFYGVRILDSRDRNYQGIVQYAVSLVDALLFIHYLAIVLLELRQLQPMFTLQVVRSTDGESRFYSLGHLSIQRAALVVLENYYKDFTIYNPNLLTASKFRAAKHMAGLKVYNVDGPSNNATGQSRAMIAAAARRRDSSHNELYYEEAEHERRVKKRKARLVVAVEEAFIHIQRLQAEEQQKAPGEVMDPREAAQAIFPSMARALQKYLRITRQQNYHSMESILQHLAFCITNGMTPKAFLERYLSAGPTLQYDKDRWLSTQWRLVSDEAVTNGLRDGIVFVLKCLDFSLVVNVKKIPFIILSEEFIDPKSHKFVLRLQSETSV
Text: as §1, §2

YARVRRRGPRRWRLVSDEAV [KDIP]
endogenous KITENIN protein level (in words) [1]: decreased | cell invasion of CT-26/KITENIN-V5 cells (in words) [2]: significantly reduced | endogenous KITENIN protein level (in words) [3]: decreased
